From article PMC10535864, “Novel Aminopyrimidine-2,4-diones, 2-Thiopyrimidine-4-ones, and 6-Arylpteridines as Dual-Target Inhibitors of BRD4/PLK1: Design, Synthesis, Cytotoxicity, and Computational Studies” (Pharmaceuticals, 2023)
Where “and” joins values, the source holds several entries; their conditions need not be identical. Equal values may be shown once.

Tests used:
Type in all cases: cell-based
MDA-MB-231 cells [1] = assay: Cell cycle analysis, propidium iodide flow cytometry; details: treated at IC50 concentration, 48 h
Source text: (§1) The results are indicated as a dot plot graph with four quadrant images (Figure 5B). […] However, both compounds also raised the necrotic percent by 1.8- and 2.8-fold, respectively, compared to non-treated cells. Overall, these findings implied that compound 7 could exert anticancer activity by producing cell cycle arrest at the G2/M phase and inducing apoptosis.
(§2) An Epics XL-MCL™ Flow Cytometer and Flowing software 2012 were used to count and analyze stained cells. The Supplementary file contains detailed descriptions of the flow cytometric analysis of cell-cycle distribution and cellular apoptosis. […]
(§3) 1.3.Cell cycle and apoptosis screening […]
(§4) investigated using an Ab-139418 propidium iodide flow cytometry kit and an Annexin-V assay and biparametric cytofluorimetric analysis, respectively, as instructed by the manufacturer. IC50s of both 7 and […]
Cytometer and Flowing software were used to count and analyze stained cells. The Supplementary file contains detailed descriptions of the flow cytometric analysis of cell-cycle distribution and cellular apoptosis.
1.3.1. Cell cycle analysis […]
a six-well plate containing MDA-MB-231 breast cancer cells was seeded with 1 X 10^5 cells per well and then […]
Following that, cells were gathered and fixed in ice-cold 70% ethanol at 4 °C for 12 hours. The cells were then rinsed with cold Phosphate Buffer Saline (PBS) and incubated for 30 minutes at 37°C in 0.5 mL of PBS after the ethanol was removed. Propidium iodide was used to stain the cells for 30 min while they were in the dark. DNA content was determined using a flow cytometer. […]

MDA-MB-231 cells [2] = assay: Apoptosis screening, annexin V-FITC/PI flow cytometry; details: compared to non-treated control MDA-MB-231 cells
Source text: as §1, §2, §3, §4
Cytometer and Flowing software were used to count and analyze stained cells. The Supplementary file contains detailed descriptions of the flow cytometric analysis of cell-cycle distribution and cellular apoptosis. […]
1.3.2. Apoptosis screening […]
plate received 1 X 105 conc. breast cancer (MDA-MB-231) cells that were then incubated for 24 hours. The cells […]
with PBS, and stained for 15 min at room temperature in the dark with annexin V-FITC and PI in binding buffer (10 […]
µM HEPES, 140 µM NaCl, and 2.5 µM CaCl2 at pH 7.4). […]
high-quality RNA iseluted in RNase-free water.
1.4.2. Master mix preparation
All the following reagents were mixed together to give a totalvolume (50 μL). 2X SYBR® Green RT-PCR reaction mixture (25 μL), forward primer (10 μM) (1.5 μL), reverse primer (10 μM) (1.5 μL), nuclease-free H2O (11 μL), RNA template (1 pg to 100 ng totalRNA) (10 μL) and iScript reverse transcriptase for One-Step RT-PCR (1 μL).
1.4.3. Amplification protocol
Incubate complete reaction mixture in a real-time thermal detection system (Rotorgene) as follows: cDNA synthesis:
10 min at 50 °C, iScript reverse transcriptase inactivation: 5 min at 95 °C, polymerase chain reaction (PCR) cycling and detection (30–45 cycles): 10 s at 95 °C and 30 s at 55 °C to 60 °C (data collection step) and melt curve analysis:
1 min at95 °C and 1 min at55 °C and 10 s at55 °C (80 cycles, increasing each by 0.5 °C each cycle).

[3] = test system: BAX gene in MDA-MB-231 cells; assay: RT-PCR gene expression, BAX; details: 48 h treatment, control = 1
Method: (§5) As well, there was an apparent increase in caspase-3, showing 3.9-fold more expression than in control cells.
(§6) Fluorometric analysis was used to gauge the level of these genes’ expression. The procedure for the used kit was carried out in accordance with the manufacturer’s instructions, which are detailed in the Supplementary file. […]
(§7) […] at pH 7.4). The flow cytometer was then used to examine the cells […]
(§8) 1.4.Estimation of apoptotic and anti-apoptotic gene markers […]
(§9) such as Bax and caspase-3, as well as anti-apoptotic genes such as Bcl-2, was studied using the BIORAD iScriptTM One-Step RT-PCR kit with SYBR® Green. MDA-MB-231 cells were cultured before being treated for 48 hours […]
(§10) Fluorometric analysis was used to gauge the level of these genes' expression. The procedure for the used kit was carried out in accordance with the manufacturer's instructions, which are detailed as follows:
(§11) 1.4.1. RNA isolation and reverse transcription m RNA isolation iscarried out using an RNeasy extraction kit,up to 1 x 10^7 cells, depending on the cell line. Cells are disrupted in RNeasy Lysis Buffer (RLT buffer), homogenized, then ethanol is added to the lysate, creating conditions that promote selective binding of RNA to the RNeasy membrane. […]

[4] = test system: caspase-3 gene in MDA-MB-231 cells; assay: RT-PCR gene expression, caspase-3; details: 48 h treatment, control = 1
Method: as §5, §6, §7, §8, §9, §10, §11

[5] = test system: Bcl-2 gene in MDA-MB-231 cells; assay: RT-PCR gene expression, Bcl-2; details: 48 h treatment, control = 1
Method: as §5, §6, §7, §8, §9, §10, §11

Structure (SMILES): Cn1c(SCC(=O)c2ccccc2)nc(=O)c(/N=C(/CBr)c2ccccc2)c1N [Compound 7, (E)-6-Amino-5-((2-bromo-1-phenylethylidene)amino)-1-methyl-2-((2-oxo-2-phenylethyl)thio)pyrimidin-4(1H)-one]
- DNA content % at cell cycle phase %G2/M (MDA-MB-231 cells [1]; control 9.19%): 22.36%
- DNA content % at cell cycle phase %S (MDA-MB-231 cells [1]; control 29.53%): 28.02%
- DNA content % at cell cycle phase %G0/G1 (MDA-MB-231 cells [1]; control 61.28%): 49.62%
- increase in early apoptosis (MDA-MB-231 cells [2]): 58.8 fold
- increase in total apoptosis (MDA-MB-231 cells [2]): 19.3 fold
- rise of necrotic percent (MDA-MB-231 cells [2]): 1.8 fold
- Gene expression BAX (apoptotic gene) [3]: 7.3 fold and 7.325 fold
- Gene expression Caspase-3 (apoptotic gene) [4]: 3.9 fold and 3.904 fold
- Gene expression Bcl-2 (anti-apoptotic gene) [5]: 0.30 fold and 0.301 fold
